From ChEMBL document CHEMBL1201862, “PubChem BioAssay data set” (2004)
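Grown in 96-well plates, cells were treated for 48 hours with each compound at five concentrations. Insufficient inhibition: endpoint recorded as highest concentration tested. GI50 is the concentration that inhibits growth by half.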 Active and inactive are the calls of the source. Cut-off read from the data, not from the text of the source: active = GI50 up to about 1.1 µM and inactive = higher. Residues, ends and D or L forms follow the SMILES beside them. Groups on a side chain read outwards from the residue. *: point of attachment. Cbz = O=C(OCc1ccccc1)*; Boc = CC(C)(C)OC(=O)*

Columns and labels:
Experiment in all cases: NCI tumour cell line growth inhibition, 48 h
NCI-H522 = system: NCI-H522
MDA-MB-435 = system: MDA-MB-435
PC-3 = system: PC-3
EKVX = system: EKVX
SF-268 = system: SF-268
MOLT-4 = system: MOLT-4
MDA-MB-231 = system: MDA-MB-231
UACC-257 = system: UACC-257
Malme-3M = system: Malme-3M
COLO 205 = system: COLO 205
U-251 = system: U-251
MCF7 = system: MCF7
SK-MEL-2 = system: SK-MEL-2
CCRF-CEM = system: CCRF-CEM
SK-MEL-28 = system: SK-MEL-28
A498 = system: A498
SK-MEL-5 = system: SK-MEL-5
SNB-75 = system: SNB-75
SF-295 = system: SF-295
SF-539 = system: SF-539

Row | Structure (SMILES) | GI50 (NCI-H522) | GI50 (MDA-MB-435) | GI50 (PC-3) | GI50 (EKVX) | GI50 (SF-268) | GI50 (MOLT-4) | GI50 (MDA-MB-231) | GI50 (UACC-257) | GI50 (Malme-3M) | GI50 (COLO 205) | GI50 (U-251) | GI50 (MCF7) | GI50 (SK-MEL-2) | GI50 (CCRF-CEM) | GI50 (SK-MEL-28) | GI50 (A498) | GI50 (SK-MEL-5) | GI50 (SNB-75) | GI50 (SF-295) | GI50 (SF-539)
1 | NC(=O)N/N=C1\CCCCc2ccccc21 | > 10 µM (inactive) | > 10 µM (inactive) | > 10 µM (inactive) | > 10 µM (inactive) | > 10 µM (inactive) | > 10 µM (inactive) | > 10 µM (inactive) | > 10 µM (inactive) | > 10 µM (inactive) | > 10 µM (inactive) | > 10 µM (inactive) | > 10 µM (inactive) | > 10 µM (inactive) | > 10 µM (inactive) |  |  |  |  |  | 
2 | COc1ccc(N2C(=O)/C(=C\c3cccc(Oc4ccccc4)c3)S(=O)(=O)C2c2ccccc2)cc1 (stereo unspecified) | 12.3 µM (inactive) | 19.8 µM (inactive) | 56 µM (inactive) | 15.7 µM (inactive) |  | 0.146 µM (active) | 85.1 µM (inactive) | 26.1 µM (inactive) | 24.4 µM (inactive) | 64.1 µM (inactive) | 50.7 µM (inactive) | 26 µM (inactive) | 37.2 µM (inactive) | 73.6 µM (inactive) | > 100 µM (inactive) | 28.9 µM (inactive) | 16.3 µM (inactive) |  |  | 
3 | Nc1ncnc2ccc(Sc3ccc4ncnc(N)c4c3)cc12 |  | > 100 µM (inactive) | > 100 µM (inactive) | > 100 µM (inactive) | > 100 µM (inactive) | > 100 µM (inactive) | > 100 µM (inactive) | > 100 µM (inactive) | > 100 µM (inactive) | > 100 µM (inactive) | > 100 µM (inactive) | > 100 µM (inactive) | > 100 µM (inactive) | > 100 µM (inactive) | > 100 µM (inactive) | > 100 µM (inactive) | > 100 µM (inactive) | > 100 µM (inactive) | > 100 µM (inactive) | > 100 µM (inactive)
4 | COc1ncnc2c1cnn2Cc1cn(COCC(O)CO)nn1 (stereo unspecified) | 10.8 µM (inactive) | > 100 µM (inactive) | > 100 µM (inactive) | > 100 µM (inactive) | 16.3 µM (inactive) | > 100 µM (inactive) | > 100 µM (inactive) | > 100 µM (inactive) |  | > 100 µM (inactive) | > 100 µM (inactive) | > 100 µM (inactive) | > 100 µM (inactive) | > 100 µM (inactive) | > 100 µM (inactive) | > 100 µM (inactive) | > 100 µM (inactive) |  | > 100 µM (inactive) | > 100 µM (inactive)
5 | COc1c(N2CCCCC2)c2c(=O)c3ccccc3oc2c2c3ccccc3n(C)c12 |  | > 100 µM (inactive) | > 100 µM (inactive) | > 100 µM (inactive) | > 100 µM (inactive) | 54.8 µM (inactive) | > 100 µM (inactive) | > 100 µM (inactive) | > 100 µM (inactive) | 26.2 µM (inactive) | > 100 µM (inactive) | 29.7 µM (inactive) | > 100 µM (inactive) | 64.3 µM (inactive) | > 100 µM (inactive) |  | > 100 µM (inactive) | > 100 µM (inactive) | > 100 µM (inactive) | > 100 µM (inactive)
6 | COC(=O)C1=COc2c(n(C)c3ccccc23)-c2ccccc21 |  | > 100 µM (inactive) | > 100 µM (inactive) | > 100 µM (inactive) | > 100 µM (inactive) | > 100 µM (inactive) | > 100 µM (inactive) | > 100 µM (inactive) | > 100 µM (inactive) | > 100 µM (inactive) | > 100 µM (inactive) | > 100 µM (inactive) | > 100 µM (inactive) | > 100 µM (inactive) |  | > 100 µM (inactive) | 71.1 µM (inactive) | 27.6 µM (inactive) | > 100 µM (inactive) | 81.1 µM (inactive)
7 | CCc1cc2c(oc3cc(C)ccc32)c(=O)n1C | > 10 µM (inactive) | > 10 µM (inactive) | > 10 µM (inactive) | > 10 µM (inactive) | > 10 µM (inactive) | > 10 µM (inactive) | > 10 µM (inactive) | > 10 µM (inactive) | > 10 µM (inactive) |  | > 10 µM (inactive) | > 10 µM (inactive) | > 10 µM (inactive) | > 10 µM (inactive) |  |  |  | > 10 µM (inactive) | > 10 µM (inactive) | > 10 µM (inactive)
8 | C[C@]12C(=O)OC[C@H](c3ccccc3)N1C(=O)N(Cc1ccccc1)[C@@H]2CO |  | > 100 µM (inactive) | > 100 µM (inactive) | > 100 µM (inactive) | > 100 µM (inactive) | > 100 µM (inactive) | > 100 µM (inactive) | > 100 µM (inactive) | > 100 µM (inactive) | > 100 µM (inactive) |  | > 100 µM (inactive) | > 100 µM (inactive) | > 100 µM (inactive) | > 100 µM (inactive) | > 100 µM (inactive) | > 100 µM (inactive) | 45.6 µM (inactive) | > 100 µM (inactive) | > 100 µM (inactive)
9 | OC(c1cc2ccc(C(F)(F)F)cc2c2cc(C(F)(F)F)ccc12)C1CCCCN1 (stereo unspecified) | 1.7 µM (inactive) | 1.48 µM (inactive) | 1.58 µM (inactive) | 0.428 µM (active) | 1.64 µM (inactive) | 1.41 µM (inactive) | 1.73 µM (inactive) | 1.56 µM (inactive) | 0.0498 µM (active) | 1.59 µM (inactive) | 1.71 µM (inactive) | 1.81 µM (inactive) | 1.91 µM (inactive) | 1.78 µM (inactive) | 1.91 µM (inactive) |  | 1.56 µM (inactive) | 1.29 µM (inactive) |  | 1.69 µM (inactive)
10 | O=C(CSC1=NC(=O)C2(NN1)c1ccccc1-c1ccccc12)NC(=S)Nc1ccccc1 | 7.03 µM (inactive) | > 10 µM (inactive) | > 10 µM (inactive) | 4.04 µM (inactive) | > 10 µM (inactive) | 9.14 µM (inactive) | > 10 µM (inactive) | > 10 µM (inactive) | > 10 µM (inactive) | > 10 µM (inactive) |  | 4.27 µM (inactive) |  | > 10 µM (inactive) | > 10 µM (inactive) |  | > 10 µM (inactive) | > 10 µM (inactive) | > 10 µM (inactive) | > 10 µM (inactive)
11 | c1ccc(Cc2cccc3cc(-c4ccc(-c5ccccc5)cc4)[nH]c23)cc1 | 17.2 µM (inactive) | > 100 µM (inactive) | 61.9 µM (inactive) | > 100 µM (inactive) | 32.7 µM (inactive) | > 100 µM (inactive) | 99.5 µM (inactive) | > 100 µM (inactive) | 1.76 µM (inactive) | > 100 µM (inactive) | 70.6 µM (inactive) | 97.1 µM (inactive) | > 100 µM (inactive) | 30.1 µM (inactive) | > 100 µM (inactive) |  | > 100 µM (inactive) | 22.5 µM (inactive) | > 100 µM (inactive) | 53.8 µM (inactive)
12 | CC(C)(C)OC(=O)NC(CCCCNC(=O)CNC(=O)OCc1ccccc1)C(=O)NC(CCCCNC(=O)CNC(=O)OCc1ccccc1)C(=O)NC(CCCCNC(=O)CNC(=O)OCc1ccccc1)C(=O)NC(CCCCNC(=O)CNC(=O)OCc1ccccc1)C(=O)O (stereo unspecified) (Boc-K([Gly-Cbz])K([Gly-Cbz])K([Gly-Cbz])K([Gly-Cbz])-OH; configuration not given here) | > 100 µM (inactive) | > 10 µM (inactive) | > 100 µM (inactive) |  | > 100 µM (inactive) | > 100 µM (inactive) | > 100 µM (inactive) | > 100 µM (inactive) | > 100 µM (inactive) |  | > 100 µM (inactive) | > 100 µM (inactive) | > 100 µM (inactive) | > 100 µM (inactive) | > 100 µM (inactive) |  | > 100 µM (inactive) | > 100 µM (inactive) |  | 
13 | Clc1cc(Cl)c2cc3cccc[n+]3cc2c1Cl |  | 16.3 µM (inactive) | 14 µM (inactive) | 13.8 µM (inactive) | 12.8 µM (inactive) | 14 µM (inactive) | 17.9 µM (inactive) | 15.2 µM (inactive) | 22.2 µM (inactive) | 14.8 µM (inactive) | 16.7 µM (inactive) | 14.2 µM (inactive) | 16.3 µM (inactive) | 12.1 µM (inactive) | 15.5 µM (inactive) | 18.6 µM (inactive) | 16 µM (inactive) | 12 µM (inactive) | 18 µM (inactive) | 18.3 µM (inactive)
14 | Cc1nnc2n1-c1ccccc1-c1[nH]c3ccccc3c1C2 |  | 60.1 µM (inactive) | 46.1 µM (inactive) | > 100 µM (inactive) | > 100 µM (inactive) | 45 µM (inactive) | 58.5 µM (inactive) | 59.8 µM (inactive) | 78.9 µM (inactive) | 45 µM (inactive) |  | > 100 µM (inactive) |  | 53.8 µM (inactive) | 73.5 µM (inactive) | 19.2 µM (inactive) | 26.2 µM (inactive) | 8.24 µM (inactive) | 56.1 µM (inactive) | > 100 µM (inactive)
15 | O=C(OCCN=C1c2ccccc2CCc2ccccc21)c1cc([N+](=O)[O-])cc([N+](=O)[O-])c1 |  | > 31.6 µM (inactive) | > 31.6 µM (inactive) | > 31.6 µM (inactive) | > 31.6 µM (inactive) | 4.22 µM (inactive) | > 31.6 µM (inactive) | > 31.6 µM (inactive) | > 31.6 µM (inactive) | > 31.6 µM (inactive) | > 100 µM (inactive) | > 31.6 µM (inactive) | > 31.6 µM (inactive) | 74.6 µM (inactive) | > 31.6 µM (inactive) | > 10 µM (inactive) | 27.2 µM (inactive) | > 100 µM (inactive) | 23.6 µM (inactive) | > 31.6 µM (inactive)
